# Reference: patent US12479823B2, “Compound for use in retinal diseases” (ZHUHAI UNITED LABORATORIES CO., LTD., priority 2018, dated 2025)
# Read-outs that look alike come from different tables or passages of the source.
# How the values were obtained:
# [1] = In vitro aldehyde capture capacity test (complexing with nonanal, HPLC at 254 nm); conditions: for Area under the curve AUC / Slope (linear equation of percentage content of complexed products vs time): nonanal 1.0 eq, compound 1.0 eq, 20-23° C., 10-300 min, HPLC 254 nm; for Slope (linear equation of percentage content of complexed products vs time): in %/min
# Procedure: Objective: dry eye disease is caused by inflammation in eyes, wherein the inflammation may produce aldehydes that will accelerate the inflammation symptoms and worsen the dry eye disease if not eliminated in time. In the experiment, a better compound was selected according to the complexing capacity of the drug and aldehydes in vivo by simulating the in vivo environment.
# Procedures: Sulfobutyl-B-cyclodextrin (310 mg) was dissolved in a phosphate buffer (1.25 mL) to prepare a solution.
# Nonanal (5.0 mg, 32 μmol, 1.0 eq) and triolein (300 mg) were added to a reaction flask at room temperature, after addition of the prepared solution described above, linoleic acid (300 mg) was added, and finally a dimethyl sulfoxide (0.15 ml) solution containing the compound (32 μmol, 1.0 eq) of the present disclosure was added; the reaction solution was reacted at 20-23° C.
# The reaction solution was reacted under stirring for 10 min, 100 min, 200 min, and 300 min respectively, and sampled for high performance liquid chromatography after the solution was stratified after standing for 2 min.
# Sampling method: 25 μl of an upper emulsified layer and 50 μl of a lower aqueous phase were sampled by a pipette, and samples were diluted with 1 mL of methanol.
# The ultraviolet absorption of the nonanal was weak at 254 nm, so the nonanal had little overall effect on the content of complexed products. Therefore, the percentage contents of complexes at 254 nm under high performance liquid chromatography were compared to observe aldehyde capture and complexing capacities, as shown in FIG. 1 and Table 1:
# Taking The compound 7 as an example, after 300 min of reaction, the analytical method for HPLC was XBRIGE 2.5 μm, 3.0*100 mm 5-80CD_XBEH_12 min_0.8.1 cm;
# Retention time 6.689 min, 6.787 min, 6.966 min, and 7.102 min were absorption peaks of products complexed with monomolecular aldehyde;
# Retention time 8.905 min, 9.010 min, and 9.075 min were absorption peaks of products complexed with bimolecular aldehyde.
# [2] = molecular target: T1, CYP1A2 (Homo sapiens, UniProt P05177); assay: Inhibition of human liver microsomal cytochrome P450 CYP1A2; type: in vitro ADME; conditions: human liver microsomes, probe substrate, NADPH
# T1 construct: fused human liver microsomes were selected as a CYP450 enzyme source; from tissue; host or cells: pooled ("fused") human liver microsomes
# T1 sequence (P05177 1-516): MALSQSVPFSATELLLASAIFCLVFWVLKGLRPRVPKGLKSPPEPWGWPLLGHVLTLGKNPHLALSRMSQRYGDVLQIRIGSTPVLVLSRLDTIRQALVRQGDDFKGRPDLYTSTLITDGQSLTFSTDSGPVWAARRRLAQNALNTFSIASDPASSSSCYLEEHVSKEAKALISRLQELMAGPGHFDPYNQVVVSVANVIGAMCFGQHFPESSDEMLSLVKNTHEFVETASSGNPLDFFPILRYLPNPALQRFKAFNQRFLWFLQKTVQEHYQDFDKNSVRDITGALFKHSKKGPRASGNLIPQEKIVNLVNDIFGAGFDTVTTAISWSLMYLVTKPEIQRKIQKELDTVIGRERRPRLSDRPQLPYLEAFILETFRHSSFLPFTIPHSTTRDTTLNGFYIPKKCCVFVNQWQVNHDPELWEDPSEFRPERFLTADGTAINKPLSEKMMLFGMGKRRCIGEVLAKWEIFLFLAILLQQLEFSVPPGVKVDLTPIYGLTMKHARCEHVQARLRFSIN
# Description: (§1) Objective: To study the inhibitory effect of compounds on human liver microsomal cytochrome P450. Experimental procedures: In the study on inhibition of the compounds on the human liver microsomal cytochrome P450 (CYP1A2, CYP2C9, CYP2C19, CYP2D6 and CYP3A4), fused human liver microsomes were selected as a CYP450 enzyme source. […]
# [3] = molecular target: T2, CYP2C9 (Homo sapiens, UniProt P11712); assay: Inhibition of human liver microsomal cytochrome P450 CYP2C9; type: in vitro ADME; conditions: human liver microsomes, probe substrate, NADPH
# T2 construct: fused human liver microsomes were selected as a CYP450 enzyme source; from tissue; host or cells: pooled ("fused") human liver microsomes
# T2 sequence (P11712 whole entry, the tested form may be a part): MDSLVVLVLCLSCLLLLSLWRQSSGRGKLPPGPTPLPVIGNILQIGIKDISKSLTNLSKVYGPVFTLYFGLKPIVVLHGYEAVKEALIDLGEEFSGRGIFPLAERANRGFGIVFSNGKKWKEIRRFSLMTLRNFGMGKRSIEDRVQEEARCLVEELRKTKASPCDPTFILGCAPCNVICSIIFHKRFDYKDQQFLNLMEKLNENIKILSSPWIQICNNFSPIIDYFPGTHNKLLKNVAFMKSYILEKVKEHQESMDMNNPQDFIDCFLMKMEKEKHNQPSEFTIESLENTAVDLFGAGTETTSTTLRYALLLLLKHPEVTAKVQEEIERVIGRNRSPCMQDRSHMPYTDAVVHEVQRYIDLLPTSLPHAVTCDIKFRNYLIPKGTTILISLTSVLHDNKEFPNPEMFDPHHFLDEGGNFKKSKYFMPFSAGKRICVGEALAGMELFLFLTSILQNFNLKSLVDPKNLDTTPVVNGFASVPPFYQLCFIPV
# Description: as §1
# [4] = molecular target: T3, CYP2C19 (Homo sapiens, UniProt P33261); assay: Inhibition of human liver microsomal cytochrome P450 CYP2C19; type: in vitro ADME; conditions: human liver microsomes, probe substrate, NADPH
# T3 construct: fused human liver microsomes were selected as a CYP450 enzyme source; from tissue; host or cells: pooled ("fused") human liver microsomes
# T3 sequence (P33261 whole entry, the tested form may be a part): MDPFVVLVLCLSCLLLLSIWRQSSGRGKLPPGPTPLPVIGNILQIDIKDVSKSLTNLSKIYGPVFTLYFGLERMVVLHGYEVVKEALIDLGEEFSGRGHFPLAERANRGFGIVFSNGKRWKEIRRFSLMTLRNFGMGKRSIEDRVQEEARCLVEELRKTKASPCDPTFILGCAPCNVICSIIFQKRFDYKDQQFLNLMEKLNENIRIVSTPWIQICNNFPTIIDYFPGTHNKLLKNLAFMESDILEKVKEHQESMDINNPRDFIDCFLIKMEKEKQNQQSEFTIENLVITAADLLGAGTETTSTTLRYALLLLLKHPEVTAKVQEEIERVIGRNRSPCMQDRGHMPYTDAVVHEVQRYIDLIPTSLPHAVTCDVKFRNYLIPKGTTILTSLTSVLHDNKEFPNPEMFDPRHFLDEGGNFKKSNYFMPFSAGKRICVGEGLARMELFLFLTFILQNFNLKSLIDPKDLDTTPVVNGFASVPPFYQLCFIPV
# Description: as §1
# [5] = molecular target: T4, CYP2D6 (Homo sapiens, UniProt P10635); assay: Inhibition of human liver microsomal cytochrome P450 CYP2D6; type: in vitro ADME; conditions: human liver microsomes, probe substrate, NADPH
# T4 construct: fused human liver microsomes were selected as a CYP450 enzyme source; from tissue; host or cells: pooled ("fused") human liver microsomes
# T4 sequence (P10635 whole entry, the tested form may be a part): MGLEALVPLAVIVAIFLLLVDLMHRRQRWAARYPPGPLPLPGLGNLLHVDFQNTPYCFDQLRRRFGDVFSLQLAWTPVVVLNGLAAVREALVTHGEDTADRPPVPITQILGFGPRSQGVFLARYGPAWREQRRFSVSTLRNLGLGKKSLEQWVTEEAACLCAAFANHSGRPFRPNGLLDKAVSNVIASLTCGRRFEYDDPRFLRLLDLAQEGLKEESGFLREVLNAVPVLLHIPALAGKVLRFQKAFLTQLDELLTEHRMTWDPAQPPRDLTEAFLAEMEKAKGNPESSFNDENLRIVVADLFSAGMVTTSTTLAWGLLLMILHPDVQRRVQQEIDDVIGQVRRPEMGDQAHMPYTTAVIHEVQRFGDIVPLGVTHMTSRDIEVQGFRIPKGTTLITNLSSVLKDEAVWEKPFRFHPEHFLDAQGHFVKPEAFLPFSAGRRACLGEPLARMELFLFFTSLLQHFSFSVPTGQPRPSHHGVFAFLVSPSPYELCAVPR
# Description: as §1
# [6] = molecular target: T5, CYP3A4 (Homo sapiens, UniProt P08684); assay: Inhibition of human liver microsomal cytochrome P450 CYP3A4; type: in vitro ADME; conditions: human liver microsomes, two probe substrates, NADPH
# T5 construct: fused human liver microsomes were selected as a CYP450 enzyme source; from tissue; host or cells: pooled ("fused") human liver microsomes
# T5 sequence (P08684 whole entry, the tested form may be a part): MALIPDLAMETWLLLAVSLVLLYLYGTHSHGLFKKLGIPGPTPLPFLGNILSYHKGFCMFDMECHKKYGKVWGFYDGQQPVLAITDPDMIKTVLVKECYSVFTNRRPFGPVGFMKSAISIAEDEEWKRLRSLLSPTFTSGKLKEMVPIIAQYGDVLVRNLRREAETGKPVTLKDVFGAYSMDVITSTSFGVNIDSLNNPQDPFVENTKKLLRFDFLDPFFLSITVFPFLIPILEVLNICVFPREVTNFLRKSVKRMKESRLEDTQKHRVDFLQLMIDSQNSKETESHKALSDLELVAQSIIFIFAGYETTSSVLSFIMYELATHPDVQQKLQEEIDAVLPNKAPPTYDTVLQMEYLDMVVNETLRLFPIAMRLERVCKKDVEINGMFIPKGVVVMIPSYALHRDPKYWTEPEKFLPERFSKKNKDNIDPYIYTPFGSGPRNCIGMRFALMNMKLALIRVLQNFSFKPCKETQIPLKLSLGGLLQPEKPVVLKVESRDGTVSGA
# Description: as §1
# [7] = Corneal and plasma drug concentration after eye drops in rats; type: in vivo; conditions: for entry into the cornea by eye drops: SD rats, result in words
# Procedure: Objective: To Study the Ratio of Corneal to Plasma Drug Concentration After Eye Drops in Rats
# Experimental Materials: Male SD Rats, 200-300 g, 7-9 weeks old, Shanghai Lingchang
# Experimental procedures: The candidate compound was prepared as a clear solution, and administered to SD rats by eye drops. The vehicle for eye drops was 10% hydroxypropyl β-cyclodextrin aqueous solution, and the drug concentration in the eye drops was 5 mg/mL. Corneal and whole blood samples were collected at 1 and 4 hours, respectively. The corneal samples was homogenized in 15 mM phosphate buffer (PBS): MeoH (2:1, v: v) buffer, the whole blood samples were centrifuged at 3000 r for 10 min, and the supernatant plasma samples were separated. 20 μL of the plasma samples and homogenate samples were mixed with 400 μL of acetonitrile precipitated proteins containing an internal standard, respectively, and 2 μL of the supernatant was injected by centrifugation. The plasma concentrations were quantified by LC-MS/MS analysis; the drug concentrations in the cornea and plasma were measured respectively according to different time points, and the ratio of corneal/plasma concentrations was calculated.
IC50 [2],IC50 [3],IC50 [4],IC50 [5],IC50 [6],entry into the cornea by eye drops [7],"concentration at 1 h ([7]; male, Sprague-Dawley (SD), rat, cornea, topical, eye drops 5 mg/mL, 1 h, read-out: Corneal Concentration)","concentration at 4 h ([7]; male, Sprague-Dawley (SD), rat, cornea, topical, eye drops 5 mg/mL, 4 h, read-out: Corneal Concentration)","Kp at 1 h ([7]; male, Sprague-Dawley (SD), rat, cornea/plasma, topical, eye drops 5 mg/mL, 1 h, read-out: Corneal Concentration/Plasma Concentration C/P ratio)","Kp at 4 h ([7]; male, Sprague-Dawley (SD), rat, cornea/plasma, topical, eye drops 5 mg/mL, 4 h, read-out: Corneal Concentration/Plasma Concentration C/P ratio)","concentration at 1 h ([7]; male, Sprague-Dawley (SD), rat, plasma, topical, eye drops 5 mg/mL, 1 h, read-out: Plasma Concentration)","concentration at 4 h ([7]; male, Sprague-Dawley (SD), rat, plasma, topical, eye drops 5 mg/mL, 4 h, read-out: Plasma Concentration)",SMILES,percentage content of complexed products at 254 nm ([1]; Time 10 min),percentage content of complexed products at 254 nm ([1]; Time 100 min),percentage content of complexed products at 254 nm ([1]; Time 200 min),percentage content of complexed products at 254 nm ([1]; Time 300 min),Area under the curve AUC [1],Slope (linear equation of percentage content of complexed products vs time) [1]
> 50 µM,> 50 µM,> 50 µM,> 50 µM,> 50 µM,could enter the cornea by eye drops,1660 nM,167 nM,12,3.72,148 nM,36.4 nM,CC(C)(O)c1cc(Cl)c(-c2cnc(C(C)(C)O)c(N)c2)cc1N [Compound 8],4.117%,12.121%,15.49%,19.873%,3879 min. Conversion,0.0519
–,–,–,–,–,could enter the cornea by eye drops,–,–,–,–,–,–,CC(C)(O)c1cc(F)c(-c2cnc(C(C)(C)O)c(N)c2)cc1N [Compound 7],6.634%,20.013%,29.424%,36.039%,6944 min. Conversion,0.1002
–,–,–,–,–,–,–,–,–,–,–,–,CC(C)(O)c1nc(-c2ccc(N)c(C(C)(C)O)n2)ccc1N [Compound 1],0.917%,4.909%,4.383%,6.224%,1257 min. Conversion,0.0157
–,–,–,–,–,–,–,–,–,–,–,–,CC(C)(O)c1nc(Oc2ccc(N)c(C(C)(C)O)n2)ccc1N [Compound 2],2.658%,4.097%,4.721%,5.796%,1271 min. Conversion,0.0103
–,–,–,–,–,–,–,–,–,–,–,–,CC(C)(O)c1ccc(-n2cc(C(C)(C)O)c(N)cc2=O)cc1N [Compound 9],12.268%,31.427%,43.086%,48.761%,10284 min. Conversion,0.1241
–,–,–,–,–,–,–,–,–,–,–,–,CC(C)(O)c1ncc(-c2cnc(C(C)(C)O)c(N)c2)cc1N [Compound 4],1.475%,7.663%,13.353%,18.636%,3061 min. Conversion,0.0589
–,–,–,–,–,–,–,–,–,–,–,–,CC(C)(O)c1cc(F)c(Oc2ccc(N)c(C(C)(C)O)n2)cc1N [Compound 6],9.738%,27.850%,37.847%,41.686%,8953 min. Conversion,0.1083
